These results are taken from US9636418B2 (priority 2013, dated 2017).

Molecules are shown by their SMILES.

Common to all, as to assay: cell-based
The target of one experiment is hNav1.4 (Homo sapiens, UniProt P35499). The note with it: for IC50: IonWorks Quattro, read-out: IC50 Nav1.4; for Nav1.4/Nav1.7: ratio of IonWorks Quattro IC50 values.
The target of another experiment is hNav1.5 (Homo sapiens, UniProt Q14524). Particulars: IonWorks Quattro; read-out: IC50 Nav1.5. (In general: The patch-clamp technique gives a direct electrical read-out from membranes.)
Chain of hNav1.5 (Q14524 whole entry): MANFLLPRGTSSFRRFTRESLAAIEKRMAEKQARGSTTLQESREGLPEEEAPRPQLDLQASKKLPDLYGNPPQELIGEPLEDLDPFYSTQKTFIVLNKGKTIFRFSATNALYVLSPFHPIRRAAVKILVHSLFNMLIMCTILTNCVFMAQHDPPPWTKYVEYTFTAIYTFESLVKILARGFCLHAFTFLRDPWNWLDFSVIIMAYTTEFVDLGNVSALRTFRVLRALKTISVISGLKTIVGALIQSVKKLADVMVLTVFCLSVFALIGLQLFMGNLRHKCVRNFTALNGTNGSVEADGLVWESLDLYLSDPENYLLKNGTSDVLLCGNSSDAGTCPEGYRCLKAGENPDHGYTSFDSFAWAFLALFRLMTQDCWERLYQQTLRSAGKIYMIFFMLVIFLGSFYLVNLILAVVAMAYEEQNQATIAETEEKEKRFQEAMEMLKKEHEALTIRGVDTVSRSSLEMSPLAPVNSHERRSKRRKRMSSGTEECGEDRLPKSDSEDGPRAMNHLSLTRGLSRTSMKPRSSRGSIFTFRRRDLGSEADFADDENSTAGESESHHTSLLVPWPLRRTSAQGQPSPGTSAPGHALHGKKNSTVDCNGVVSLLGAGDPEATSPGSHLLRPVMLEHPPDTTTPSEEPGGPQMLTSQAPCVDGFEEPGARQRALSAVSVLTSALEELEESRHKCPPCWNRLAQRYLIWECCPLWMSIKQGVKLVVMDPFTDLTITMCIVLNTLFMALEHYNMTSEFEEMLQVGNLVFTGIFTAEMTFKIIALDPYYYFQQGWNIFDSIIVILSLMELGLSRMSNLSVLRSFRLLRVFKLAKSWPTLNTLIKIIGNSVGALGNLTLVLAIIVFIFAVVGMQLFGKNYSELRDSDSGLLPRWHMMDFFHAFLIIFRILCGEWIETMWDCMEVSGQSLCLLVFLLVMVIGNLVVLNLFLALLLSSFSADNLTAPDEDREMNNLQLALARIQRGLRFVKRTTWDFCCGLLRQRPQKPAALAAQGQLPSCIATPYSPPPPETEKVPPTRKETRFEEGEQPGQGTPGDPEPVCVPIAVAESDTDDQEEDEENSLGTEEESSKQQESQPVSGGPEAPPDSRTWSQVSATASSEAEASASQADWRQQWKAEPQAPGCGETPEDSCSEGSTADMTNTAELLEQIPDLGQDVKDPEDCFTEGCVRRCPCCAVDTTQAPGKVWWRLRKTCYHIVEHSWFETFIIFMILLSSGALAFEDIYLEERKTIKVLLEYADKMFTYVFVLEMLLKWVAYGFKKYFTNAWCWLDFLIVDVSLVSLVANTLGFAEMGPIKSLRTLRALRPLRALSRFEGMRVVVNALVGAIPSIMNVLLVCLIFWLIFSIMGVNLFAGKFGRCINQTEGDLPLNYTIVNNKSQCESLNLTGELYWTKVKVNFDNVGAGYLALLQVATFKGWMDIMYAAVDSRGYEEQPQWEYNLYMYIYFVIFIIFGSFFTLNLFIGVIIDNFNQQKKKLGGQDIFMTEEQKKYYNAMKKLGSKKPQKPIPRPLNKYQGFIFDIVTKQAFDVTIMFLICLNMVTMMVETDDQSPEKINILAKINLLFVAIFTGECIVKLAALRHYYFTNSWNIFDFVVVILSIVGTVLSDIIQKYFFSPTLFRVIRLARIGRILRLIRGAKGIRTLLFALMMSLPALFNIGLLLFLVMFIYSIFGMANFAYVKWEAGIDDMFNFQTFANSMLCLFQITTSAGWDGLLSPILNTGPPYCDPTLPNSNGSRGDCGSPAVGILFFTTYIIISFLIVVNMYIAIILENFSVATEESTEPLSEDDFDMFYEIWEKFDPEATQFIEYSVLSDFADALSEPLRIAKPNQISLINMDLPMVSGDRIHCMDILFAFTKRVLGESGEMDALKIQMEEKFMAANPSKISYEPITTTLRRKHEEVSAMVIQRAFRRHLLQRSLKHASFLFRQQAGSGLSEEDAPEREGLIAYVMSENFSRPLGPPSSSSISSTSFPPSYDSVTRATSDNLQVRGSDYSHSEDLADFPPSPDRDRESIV
For another experiment, the target named is hNav1.3 (Homo sapiens, UniProt Q9NY46). Particulars: IonWorks Quattro; read-out: IC50 Nav1.3.
Chain of hNav1.3 (Q9NY46 whole entry): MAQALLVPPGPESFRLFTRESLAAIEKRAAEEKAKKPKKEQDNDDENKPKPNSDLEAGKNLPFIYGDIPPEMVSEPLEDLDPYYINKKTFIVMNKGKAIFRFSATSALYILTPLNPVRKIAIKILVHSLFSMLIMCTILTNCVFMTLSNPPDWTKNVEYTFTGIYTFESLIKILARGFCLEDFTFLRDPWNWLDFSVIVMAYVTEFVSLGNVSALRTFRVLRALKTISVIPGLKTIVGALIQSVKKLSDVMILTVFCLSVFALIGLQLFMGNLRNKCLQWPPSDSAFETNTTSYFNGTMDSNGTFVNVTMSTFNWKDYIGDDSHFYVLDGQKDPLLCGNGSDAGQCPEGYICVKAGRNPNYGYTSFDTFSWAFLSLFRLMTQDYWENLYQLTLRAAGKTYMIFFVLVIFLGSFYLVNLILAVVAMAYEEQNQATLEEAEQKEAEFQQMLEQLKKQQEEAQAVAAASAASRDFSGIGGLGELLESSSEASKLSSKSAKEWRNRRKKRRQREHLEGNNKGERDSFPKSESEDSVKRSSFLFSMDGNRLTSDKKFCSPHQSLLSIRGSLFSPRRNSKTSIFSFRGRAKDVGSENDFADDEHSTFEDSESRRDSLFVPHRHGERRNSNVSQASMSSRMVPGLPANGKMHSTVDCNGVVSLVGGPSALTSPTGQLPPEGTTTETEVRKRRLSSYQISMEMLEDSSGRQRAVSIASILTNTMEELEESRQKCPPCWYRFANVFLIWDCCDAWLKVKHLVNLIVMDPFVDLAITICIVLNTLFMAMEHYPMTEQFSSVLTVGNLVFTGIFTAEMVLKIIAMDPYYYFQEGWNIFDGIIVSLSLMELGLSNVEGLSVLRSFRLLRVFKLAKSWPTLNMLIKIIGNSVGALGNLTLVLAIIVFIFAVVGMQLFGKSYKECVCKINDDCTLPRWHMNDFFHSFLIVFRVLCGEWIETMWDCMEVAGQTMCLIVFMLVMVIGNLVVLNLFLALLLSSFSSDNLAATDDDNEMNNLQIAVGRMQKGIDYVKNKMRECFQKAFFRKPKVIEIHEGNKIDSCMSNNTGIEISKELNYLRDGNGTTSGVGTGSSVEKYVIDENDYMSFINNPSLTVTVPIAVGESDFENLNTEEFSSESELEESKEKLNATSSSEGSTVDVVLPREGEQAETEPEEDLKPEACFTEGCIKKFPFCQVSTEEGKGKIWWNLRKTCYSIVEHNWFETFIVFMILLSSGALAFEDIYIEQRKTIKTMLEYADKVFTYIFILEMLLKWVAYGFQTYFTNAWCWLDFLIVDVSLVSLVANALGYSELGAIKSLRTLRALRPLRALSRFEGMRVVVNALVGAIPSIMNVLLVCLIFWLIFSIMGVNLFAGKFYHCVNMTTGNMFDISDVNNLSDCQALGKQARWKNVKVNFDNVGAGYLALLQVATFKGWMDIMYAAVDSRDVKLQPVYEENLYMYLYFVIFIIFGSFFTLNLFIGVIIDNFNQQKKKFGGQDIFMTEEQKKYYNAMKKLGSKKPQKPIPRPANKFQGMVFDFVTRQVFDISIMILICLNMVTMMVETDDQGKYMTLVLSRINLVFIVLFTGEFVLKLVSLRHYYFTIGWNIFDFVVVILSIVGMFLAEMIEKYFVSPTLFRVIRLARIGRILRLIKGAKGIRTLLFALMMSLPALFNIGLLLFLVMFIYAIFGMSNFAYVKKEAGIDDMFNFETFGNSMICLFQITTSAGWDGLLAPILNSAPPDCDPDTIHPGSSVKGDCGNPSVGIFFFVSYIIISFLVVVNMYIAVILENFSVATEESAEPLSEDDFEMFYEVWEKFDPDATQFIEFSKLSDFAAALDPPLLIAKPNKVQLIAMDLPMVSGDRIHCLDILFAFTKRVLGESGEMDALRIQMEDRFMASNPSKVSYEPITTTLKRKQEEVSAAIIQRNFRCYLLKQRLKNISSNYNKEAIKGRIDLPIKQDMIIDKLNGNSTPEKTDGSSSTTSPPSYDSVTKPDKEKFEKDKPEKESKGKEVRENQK
In a further experiment the target is hNav1.7 (Homo sapiens, UniProt Q15858). Particulars: IonWorks Quattro; read-out: IC50 Nav1.7.

For orientation: IC50 means the concentration that inhibits the measured activity by half. As to `CC[C@H](C)[C@H](NC(=O)[C@@H](NC(=O)[C@H](CCCCN)NC(=O)[C@H](CCCNC(=N)N)NC(=O)[C@@H]1CSSC[C@@H]2NC(=O)[C@H](C)NC(=O)[C@H](CCCNC(=N)N)NC(=O)[C@H](CCCCN)NC(=O)[C@H](CO)NC(=O)[C@H](CC(=O)O)NC(=O)[C@@H]3CSSC[C@H](NC(=O)[C@H](Cc4ccc(C(=O)O)cc4)NC(=O)[C@H](CC(C)C)NC(=O)CNC(=O)[C@H](CCC(=O)O)NC(=O)[C@H](CSSC[C@H](NC(=O)[C@@H](N)Cc4ccc(O)cc4)C(=O)N[C@@H](CCC(N)=O)C(=O)N[C@@H](CCCCN)C(=O)N[C@@H](Cc4c[nH]c5ccccc45)C(=O)N[C@@H](CCSC)C(=O)N[C@@H](Cc4c[nH]c5ccccc45)C(=O)N[C@@H]([C@@H](C)O)C(=O)N3)NC2=O)C(=O)N[C@@H](CCCCN)C(=O)N[C@@H](CC(C)C)C(=O)N[C@@H](Cc2c[nH]c3ccccc23)C(=O)N1)[C@@H](C)CC)C(N)=O` [compound 114], the half-maximal inhibitory concentration (IC50) on hNav1.4 was over 5 µM; at hNav1.5, 14.2 µM; on hNav1.3, over 5 µM; at hNav1.7, 0.21 µM. Further, the Nav1.4/Nav1.7 on hNav1.4 is reported as 24.

In the case of `CCC[C@@H]1NC(=O)[C@H](CC(C)C)NC(=O)[C@H](CCCCN)NC(=O)[C@@H]2CSSC[C@@H]3NC(=O)[C@H]([C@@H](C)O)NC(=O)[C@H](Cc4c[nH]c5ccccc45)NC(=O)[C@H](CCSC)NC(=O)[C@H](Cc4c[nH]c5ccccc45)NC(=O)[C@H](CCCCN)NC(=O)[C@H](CCC(N)=O)NC(=O)[C@@H](NC(=O)[C@@H](N)Cc4ccc(O)cc4)CSSC[C@H](NC(=O)[C@H](CSSC[C@@H](C(=O)N[C@@H](CCCNC(=N)N)C(=O)N[C@@H](CCCCN)C(=O)N[C@@H](Cc4ccc(O)cc4)C(=O)N[C@H](C(N)=O)[C@@H](C)CC)NC1=O)NC(=O)[C@H](C)NC(=O)[C@H](CCCNC(=N)N)NC(=O)[C@H](CCCCN)NC(=O)[C@H](CO)NC(=O)[C@H](CC(=O)O)NC3=O)C(=O)N[C@@H](CCC(=O)O)C(=O)NCC(=O)N[C@@H](CC(C)C)C(=O)N[C@@H](CCC(=O)O)C(=O)N2` [compound 226], the concentration for half-maximal inhibition (IC50) on hNav1.4, at hNav1.5, at hNav1.3 and at hNav1.7 was over 5 µM in each case.

Consider `CC[C@H](C)[C@H](NC(=O)[C@H](Cc1ccc(O)cc1)NC(=O)[C@H](CCCCN)NC(=O)[C@H](CCCNC(=N)N)NC(=O)[C@@H]1CSSC[C@@H]2NC(=O)[C@H](C)NC(=O)[C@H](CCCNC(=N)N)NC(=O)[C@H](CCCCN)NC(=O)[C@H](CO)NC(=O)[C@H](CC(=O)O)NC(=O)[C@@H]3CSSC[C@H](NC(=O)[C@H](CCC(=O)O)NC(=O)[C@H](CC(C)C)NC(=O)CNC(=O)[C@H](CCC(=O)O)NC(=O)[C@H](CSSC[C@H](NC(=O)[C@@H](N)Cc4ccc(O)cc4)C(=O)N[C@@H](CCC(N)=O)C(=O)N[C@@H](CCCCN)C(=O)N[C@@H](CCCCN)C(=O)N[C@@H](CCSC)C(=O)N[C@@H](Cc4c[nH]c5ccccc45)C(=O)N[C@@H]([C@@H](C)O)C(=O)N3)NC2=O)C(=O)N[C@@H](CCCCN)C(=O)N[C@@H](CC(C)C)C(=O)N[C@@H](Cc2c[nH]c3ccccc23)C(=O)N1)C(N)=O` [compound 200], for which the IC50 at hNav1.4, on hNav1.5, at hNav1.3 and on hNav1.7 was over 5 µM throughout.

`CC[C@H](C)[C@H](NC(=O)[C@H](Cc1ccc(O)cc1)NC(=O)[C@H](CCCCN)NC(=O)[C@H](CCCNC(=N)N)NC(=O)[C@@H]1CSSC[C@@H]2NC(=O)[C@H](C)NC(=O)[C@H](CCCNC(=N)N)NC(=O)[C@H](CCCCN)NC(=O)[C@H](CO)NC(=O)[C@H](CC(=O)O)NC(=O)[C@@H]3CSSC[C@H](NC(=O)[C@H](CCC(=O)O)NC(=O)[C@H](CC(C)C)NC(=O)CNC(=O)[C@H](CCC(=O)O)NC(=O)[C@H](CSSC[C@H](NC(=O)[C@@H](N)Cc4ccc(O)cc4)C(=O)N[C@@H](CCC(N)=O)C(=O)N[C@@H](CCCCN)C(=O)N[C@@H](CC(C)C)C(=O)N[C@@H](CCSC)C(=O)N[C@@H](Cc4c[nH]c5ccccc45)C(=O)N[C@@H]([C@@H](C)O)C(=O)N3)NC2=O)C(=O)N[C@@H](CCCCN)C(=O)N[C@@H](CC(C)C)C(=O)N[C@@H](Cc2c[nH]c3ccccc23)C(=O)N1)C(N)=O` [compound 196]: the IC50 on hNav1.4, on hNav1.5, at hNav1.3 and on hNav1.7 was over 5 µM throughout.

Turning to `CC[C@H](C)[C@H](NC(=O)[C@@H](NC(=O)[C@H](CCCCN)NC(=O)[C@H](CCCNC(=N)N)NC(=O)[C@@H]1CSSC[C@@H]2NC(=O)[C@H](C)NC(=O)[C@H](CCCNC(=N)N)NC(=O)[C@H](CCCCN)NC(=O)[C@H](CO)NC(=O)[C@H](CC(=O)O)NC(=O)[C@@H]3CSSC[C@H](NC(=O)[C@H](C(C)C)NC(=O)[C@H](CC(C)C)NC(=O)CNC(=O)[C@H](CCC(=O)O)NC(=O)[C@H](CSSC[C@H](NC(=O)[C@@H](N)Cc4ccc(O)cc4)C(=O)N[C@@H](CCC(N)=O)C(=O)N[C@@H](CCCCN)C(=O)N[C@@H](Cc4c[nH]c5ccccc45)C(=O)N[C@@H](CCSC)C(=O)N[C@@H](Cc4c[nH]c5ccccc45)C(=O)N[C@@H]([C@@H](C)O)C(=O)N3)NC2=O)C(=O)N[C@@H](CCCCN)C(=O)N[C@@H](CC(C)C)C(=O)N[C@@H](Cc2c[nH]c3ccccc23)C(=O)N1)[C@@H](C)CC)C(N)=O` [compound 120], the IC50 on hNav1.4 came to 3 µM; on hNav1.5 it was 7.1 µM; on hNav1.3, 3.37 µM; at hNav1.7 it was 0.1 µM. Further, the Nav1.4/Nav1.7 at hNav1.4 was determined as 31.

Consider `CC[C@H](C)[C@H](NC(=O)[C@H](Cc1ccc(O)cc1)NC(=O)[C@H](CCCCN)NC(=O)[C@H](CCCNC(=N)N)NC(=O)[C@@H]1CSSC[C@@H]2NC(=O)[C@H](C)NC(=O)[C@H](CCCNC(=N)N)NC(=O)[C@H](CCCCN)NC(=O)[C@H](CO)NC(=O)[C@H](CC(=O)O)NC(=O)[C@@H]3CSSC[C@H](NC(=O)[C@H](CCC(=O)O)NC(=O)[C@H](CC(C)C)NC(=O)CNC(=O)[C@H](CCC(=O)O)NC(=O)[C@H](CSSC[C@H](NC(=O)[C@@H](N)Cc4ccc(O)cc4)C(=O)N[C@@H](CCC(N)=O)C(=O)N[C@@H](CCCCN)C(=O)N[C@@H](Cc4c[nH]c5ccccc45)C(=O)N[C@@H](CCSC)C(=O)N[C@@H](CCC(=O)O)C(=O)N[C@@H]([C@@H](C)O)C(=O)N3)NC2=O)C(=O)N[C@@H](CCCCN)C(=O)N[C@@H](CC(C)C)C(=O)N[C@@H](Cc2c[nH]c3ccccc23)C(=O)N1)C(N)=O` [compound 217], for which the half-maximal inhibitory concentration (IC50) at hNav1.4, on hNav1.5, at hNav1.3 and at hNav1.7 was over 7 µM each time.
